Patent publication US12157730B2, “Heteroaryl derivative, method for producing same, and pharmaceutical composition comprising same as effective component” (VORONOI INC., priority 2019, dated 2024)

The compounds below were run against T1, Ba/F3 cell EGFR Exon20 ins NPH (Homo sapiens, UniProt P00533, INS773NPH) (assay: Ba/F3 cell proliferation suppression, EGFR Exon20 ins NPH). Settings: GI50 class; Ba/F3 cell line with NPH inserted at Exon20 of EGFR; 72 hours.
T1 construct: expressed in transfected cells; host or cells: Ba/F3
Format: cell-based
Procedure, shortened: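 Cells (3000–5000/well) plated 24 h before compound, 12-point 3-fold dilutions at 0.3 nM to 50 um final; Ba/F3 lines grown with 5 ng/ml IL-3. Viability by CellTiter-Glo luminescence after 72 h, growth ratio vs control, GI50 from curves; triplicate.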
With `C=CC(=O)Nc1cc(Nc2cc(N3OCC[C@@H]3c3cccs3)ncn2)c(OC)cc1N1CCC(N2C[C@H]3C[C@@H]2CO3)CC1` [compound 930, N-(2-(4-((1R,4R)-2-oxa-5-azabicyclo [2.2.1]heptane-5-yl)piperidine-1-yl)-4-methoxy-5-((6-((R)-3-(thiophene-2-yl)isoxazolidine-2-yl)pyrimidine-4-yl)amino)phenyl)acrylamide] the “Ba/F3 (NPH) Activity” value was “A (GI50 < 50 nM)”.
In the case of `C=CC(=O)Nc1cc(Nc2cc(N3OCC[C@@H]3c3ccc4ccccc4c3)ncn2)c(OC)cc1N(C)CCN(C)C` [compound 511, N-(2-((2-(dimethylamino)ethyl)(methyl)amino)-4-methoxy-5-((6-((R)-3-(naphthalene-2-yl)isoxazolidine-2-yl)pyrimidine-4-yl)amino)phenyl)acrylamide], the “Ba/F3 (NPH) Activity” value is reported as “A (GI50 < 50 nM)”.
`C=CC(=O)Nc1cc(Nc2cc(N3OCC[C@@H]3c3ccc(Cl)cc3F)ncn2)c(OC)cc1N1CCC(N2CCN(C)CC2)CC1` [compound 454, N-(5-((6-((R)-3-(4-chloro-2-fluorophenyl)isoxazolidine-2-yl)pyrimidine-4-yl)amino)-4-methoxy-2-(4-(4-methylpiperazine-1-yl)piperidine-1-yl)phenyl) acrylamide] was tested, and the “Ba/F3 (NPH) Activity” value was “A (GI50 < 50 nM)”.
In the case of `C=CC(=O)Nc1cc(Nc2cc(N3OCC[C@@H]3c3ccc(Cl)c(Cl)c3F)ncn2)c(OC)cc1N1CCC(N2C[C@@H]3C[C@H]2CO3)CC1` [compound 770, N-(2-(4-((1S,4S)-2-oxa-5-azabicyclo [2.2.1]heptane-5-yl)piperidine-1-yl)-5-((6-((R)-3-(3,4-dichloro-2-fluorophenyl)isoxazolidine-2-yl)pyrimidine-4-yl)amino)-4-methoxyphenyl) acrylamide], the “Ba/F3 (NPH) Activity” value is reported as “A (GI50 < 50 nM)”.
In the case of `C=CC(=O)Nc1cc(Nc2cc(N3OCC[C@@H]3c3ccc(Cl)c(Cl)c3F)ncn2)c(OC)cc1N1CCC(N2CCN(C3CCC3)CC2)CC1` [Example 74, N-(2-(4-(4-cyclobutylpiperazine-1-yl)piperidine-1-yl)-5-((6-((R)-3-(3,4-dichloro-2-fluorophenyl)isoxazolidine-2-yl)pyrimidine-4-yl)amino)-4-methoxyphenyl) acrylamide], the “Ba/F3 (NPH) Activity” value is reported as “B (50 nM ≤ GI50 < 500 nM)”.
In the case of `C=CC(=O)Nc1cc(Nc2cc(N3OCC[C@@H]3c3ccc(F)c(Cl)c3)ncn2)c(OC)cc1N1CCC(N2CCN(C3CC3)CC2)CC1` [Example 59, N-(5-((6-((R)-3-(3-chloro-4-fluorophenyl)isoxazolidine-2-yl)pyrimidine-4-yl)amino)-2-(4-(4-cyclopropylpiperazine-1-yl)piperidine-1-yl)-4-methoxyphenyl) acrylamide;], the “Ba/F3 (NPH) Activity” value is reported as “A (GI50 < 50 nM)”.
With `C=CC(=O)Nc1cc(Nc2cc(N3OCC[C@@H]3c3ccc(F)cc3F)ncn2)c(OC)cc1N1CCC(N2CCN(CC)CC2)CC1` [compound 424, N-(5-((6-((R)-3-(2,4-difluorophenyl)isoxazolidine-2-yl)pyrimidine-4-yl)amino)-2-(4-(4-ethylpiperazine-1-yl)piperidine-1-yl)-4-methoxyphenyl) acrylamide] the “Ba/F3 (NPH) Activity” value was “A (GI50 < 50 nM)”.
For `C=CC(=O)Nc1cc(Nc2cc(N3OCC[C@@H]3c3cccc(C)c3F)ncn2)c(OC)cc1N1CCOCC1` [compound 844, N-(5-((6-((R)-3-(2-fluoro-3-methylphenyl)isoxazolidine-2-yl)pyrimidine-4-yl)amino)-4-methoxy-2-morpholinophenyl) acrylamide], the “Ba/F3 (NPH) Activity” value was “A (GI50 < 50 nM)”.
For `C#Cc1cccc([C@H]2CCON2c2cc(Nc3cc(NC(=O)C=C)c(N4CCC(N5CCN(CC=C)CC5)CC4)cc3OC)ncn2)c1` [Example 216, N-(2-(4-(4-allylpiperazine-1-yl)piperidine-1-yl)-5-((6-((R)-3-(3-ethynylphenyl)isoxazolidine-2-yl)pyrimidine-4-yl)amino)-4-methoxyphenyl) acrylamide], the “Ba/F3 (NPH) Activity” value was “A (GI50 < 50 nM)”.
`C=CC(=O)Nc1cc(Nc2cc(N3OCC[C@@H]3c3c(F)ccc(F)c3F)ncn2)c(OC)cc1N1CC[C@@H](N(C)C)C1` [compound 630, N-(2-((R)-3-(dimethylamino)pyrolidine-1-yl)-4-methoxy-5-((6-((R)-3-(2,3,6-trifluorophenyl)isoxazolidine-2-yl)pyrimidine-4-yl)amino)phenyl)acrylamide] was tested, and the “Ba/F3 (NPH) Activity” value was “B (50 nM ≤ GI50 < 500 nM)”.
In the case of `C=CC(=O)Nc1cc(Nc2cc(N3OCC[C@@H]3c3cc(F)ccc3F)ncn2)c(OC)cc1-n1ccnc1C` [compound 330, N-(5-((6-((R)-3-(2,5-difluorophenyl)isoxazolidine-2-yl)pyrimidine-4-yl)amino)-4-methoxy-2-(2-methyl-1H-imidazole-1-yl)phenyl)acrylamide], the “Ba/F3 (NPH) Activity” value is reported as “A (GI50 < 50 nM)”.
`C=CC(=O)Nc1cc(Nc2cc(N3OCC[C@@H]3c3ccc(F)cc3F)ncn2)c(OC)cc1N1CCC(N2CCN(C3CCCC3)CC2)CC1` [Example 205, N-(2-(4-(4-cyclopentylpiperazine-1-yl)piperidine-1-yl)-5-((6-((R)-3-(2,4-difluorophenyl)isoxazolidine-2-yl)pyrimidine-4-yl)amino)-4-methoxyphenyl) acrylamide] was tested, and the “Ba/F3 (NPH) Activity” value was “A (GI50 < 50 nM)”.
For `C=CC(=O)Nc1cc(Nc2cc(N3OCC[C@@H]3c3cc(F)ccc3F)ncn2)c(OC)cc1N1CCC(N2CCC3(CC2)CC3)CC1` [compound 828, N-(2-(4-(6-azaspiro[2.5]octan-6-yl)piperidine-1-yl)-5-((6-((R)-3-(2,5-difluorophenyl)isoxazolidine-2-yl)pyrimidine-4-yl)amino)-4-methoxyphenyl) acrylamide], the “Ba/F3 (NPH) Activity” value was “A (GI50 < 50 nM)”.
`C=CC(=O)Nc1cc(Nc2cc(N3OCC[C@@H]3Cc3cccc(Cl)c3Cl)ncn2)c(OC)cc1N1CCN(C)CC1` [compound 983, N-(5-((6-((S)-3-(2,3-dichlorobenzyl)isoxazolidine-2-yl)pyrimidine-4-yl)amino)-4-methoxy-2-(4-methylpiperazine-1-yl)phenyl)acrylamide] was tested, and the “Ba/F3 (NPH) Activity” value was “A (GI50 < 50 nM)”.
`C=CC(=O)Nc1cc(Nc2cc(N3OCC[C@@H]3c3cc(F)cc(F)c3)ncn2)c(OC)cc1N1CCC(N2CCN(C3CC3)C[C@@H]2C)CC1` [Example 111, N-(2-(4-((S)-4-cyclopropyl-2-methylpiperazine-1-yl)piperidine-1-yl)-5-((6-((R)-3-(3,5-difluorophenyl)isoxazolidine-2-yl)pyrimidine-4-yl)amino)-4-methoxyphenyl) acrylamide] was tested, and the “Ba/F3 (NPH) Activity” value was “A (GI50 < 50 nM)”.
With `C=CC(=O)Nc1cc(Nc2cc(N3OCC[C@H]3Cc3ccccn3)ncn2)c(OC)cc1N1CCC(N2CCN(C3CC3)CC2)CC1` [compound 1058, N-(2-(4-(4-cyclopropylpiperazine-1-yl)piperidine-1-yl)-4-methoxy-5-((6-((R)-3-(pyridine-2-ylmethyl)isoxazolidine-2-yl)pyrimidine-4-yl)amino)phenyl)acrylamide] the “Ba/F3 (NPH) Activity” value was “C (500 nM ≤ GI50 < 5000 nM)”.
In the case of `C=CC(=O)Nc1cc(Nc2cc(N3OCC[C@@H]3c3cccc4ccccc34)ncn2)c(OC)cc1N1CCC(N2CCN(C3CC3)CC2)CC1` [Example 146, N-(2-(4-(4-cyclopropylpiperazine-1-yl)piperidine-1-yl)-4-methoxy-5-((6-((R)-3-(naphthalene-1-yl)isoxazolidine-2-yl)pyrimidine-4-yl)amino)phenyl)acrylamide], the “Ba/F3 (NPH) Activity” value is reported as “B (50 nM ≤ GI50 < 500 nM)”.
With `C=CC(=O)Nc1cc(Nc2cc(N3OCC[C@@H]3c3cccc(OC)c3)ncn2)c(OC)cc1N1CCN(C)CC1` [Example 25, N-(4-methoxy-5-((6-((R)-3-(3-methoxyphenyl)isoxazolidine-2-yl)pyrimidine-4-yl)amino)-2-(4-methylpiperazine-1-yl)phenyl) acrylamide] the “Ba/F3 (NPH) Activity” value was “B (50 nM ≤ GI50 < 500 nM)”.
For `C=CC(=O)Nc1cc(Nc2cc(N3OCC[C@@H]3Cc3cccc(Cl)c3F)ncn2)c(OC)cc1N1CCC(N2CCN(C3CC3)[C@H](C)C2)CC1` [compound 1019, N-(5-((6-((S)-3-(3-chloro-2-fluorobenzyl)isoxazolidine-2-yl)pyrimidine-4-yl)amino)-2-(4-((R)-4-cyclopropyl-3-methylpiperazine-1-yl)piperidine-1-yl)-4-methoxyphenyl) acrylamide], the “Ba/F3 (NPH) Activity” value was “A (GI50 < 50 nM)”.
`C=CC(=O)Nc1cc(Nc2cc(N3OCC[C@@H]3c3cccc(Cl)c3Cl)ncn2)c(OC)cc1N1CCN(C2CC2)CC1` [compound 518, N-(2-(4-cyclopropylpiperazine-1-yl)-5-((6-((R)-3-(2,3-dichlorophenyl)isoxazolidine-2-yl)pyrimidine-4-yl)amino)-4-methoxyphenyl) acrylamide] was tested, and the “Ba/F3 (NPH) Activity” value was “A (GI50 < 50 nM)”.
In the case of `C=CC(=O)Nc1cc(Nc2cc(N3OCC[C@@H]3c3cccc(F)c3F)ncn2)c(OC)cc1N1CCC(N2CCOCC2)CC1` [compound 920, N-(5-((6-((R)-3-(2,3-difluorophenyl)isoxazolidine-2-yl)pyrimidine-4-yl)amino)-4-methoxy-2-(4-morpholinopiperidine-1-yl)phenyl)acrylamide], the “Ba/F3 (NPH) Activity” value is reported as “A (GI50 < 50 nM)”.
With `C=CC(=O)Nc1cc(Nc2cc(N3OCC[C@@H]3Cc3cccc(F)c3C)ncn2)c(OC)cc1N1CCN(CC)CC1` [compound 1003, N-(2-(4-ethylpiperazine-1-yl)-5-((6-(S)-(3-(3-fluoro-2-methylbenzyl)isoxazolidine-2-yl)pyrimidine-4-yl)amino)-4-methoxyphenyl) acrylamide] the “Ba/F3 (NPH) Activity” value was “A (GI50 < 50 nM)”.
In the case of `C=CC(=O)Nc1cc(Nc2cc(N3OCC[C@@H]3c3cc(F)cc(F)c3)ncn2)c(OC)cc1N1CCC(N2C[C@@H]3C[C@H]2CN3CC)CC1` [Example 264, N-(5-((6-((R)-3-(3,5-difluorophenyl)isoxazolidine-2-yl)pyrimidine-4-yl)amino)-2-(4-((1S,4S)-5-ethyl-2,5-diazabicyclo[2.2.1]heptane-2-yl)piperidine-1-yl)-4-methoxyphenyl) acrylamide], the “Ba/F3 (NPH) Activity” value is reported as “A (GI50 < 50 nM)”.
